Test results reported in patent publication US11834453B2, “Substituted pyrimido[5,4-d]pyrimidines as HER2 inhibitors” (Array BioPharma Inc., priority 2020, dated 2023).

Tests used:
EGFR wild type (EGFR WT) = EGFR wild type (EGFR WT) (Homo sapiens (Human), UniProt P00533); assay: Cellular phosphorylation assay, EGF-stimulated EGFR phosphorylation in engineered NIH 3T3 cells, Phospho-EGFR DuoSet IC ELISA, Assay 5; assay type: cell-based
In short: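 NIH 3T3 cells expressing EGFR WT (20,000/well, attached overnight) were exposed to serially diluted compound for 1 h at 37 °C, then stimulated with 100 ng/ml rEGF for 10 min. Phospho-EGFR in lysates measured by sandwich ELISA optical density; IC50 from curves.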

[1] = target: ErbB2 insYVMA (HER2-YVMA, SEQ ID NO: 2) (Homo sapiens, UniProt P04626, INS775YVMA/P1170A); assay: biochemical; details: ErbB2 insYVMA enzyme assay; read-out: Assay 1 IC50
EGFR = EGFR (Homo sapiens (Human), UniProt P00533); assay: ErbB enzyme assay (CisBio HTRF KinEASE-TK), Assay 3; assay type: biochemical
In short: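 Kinase incubated 30 min at 22 °C with 250 nM biotinylated TK substrate, 1 mM ATP and serially diluted compound in 25 mM HEPES pH 7.4, 10 mM MgCl2, 0.01% Triton X-100, 2% DMSO. Phosphorylation read by HTRF (Sa-XL665/TK-Ab-Cryptate); IC50 from 4-parameter fit of percent of control.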

ErbB2 WT = ErbB2 WT (Homo sapiens (Human), UniProt P04626); assay: ErbB enzyme assay (CisBio HTRF KinEASE-TK), Assay 2; assay type: biochemical
In short: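 ErbB2 phosphorylates 250 nM biotin-TK substrate at 1 mM ATP in 25 mM HEPES pH 7.4, 10 mM MgCl2, 0.01% Triton X-100 and 2% DMSO, for 30 min at 22 °C. Product is detected by HTRF with Sa-XL665 and TK-Ab-Cryptate. Percent of control is set by DMSO-only wells and pre-quenched wells.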

[2] = target: ErbB2 with Exon 20 YVMA insertion (HER2-YVMA) (Homo sapiens (Human), UniProt P04626, INS775YVMA); assay: Cellular phosphorylation assay, constitutive ErbB2 phosphorylation (Y1196) in engineered NIH 3T3 cells, Assay 4; assay type: cell-based
In short: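 Engineered NIH 3T3 cells expressing HER2-YVMA treated with compounds 1 h at 37 °C, then formaldehyde-fixed and methanol-permeabilized. pErbB2 Y1196 detected by in-cell infrared immunofluorescence, normalized to GAPDH. IC50 from the normalized curves.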

ErbB2 insYVMA (HER2-YVMA, SEQ ID NO: 2), sequence (P04626 with tags, fused parts or gaps INS775YVMA/P1170A limits assumed): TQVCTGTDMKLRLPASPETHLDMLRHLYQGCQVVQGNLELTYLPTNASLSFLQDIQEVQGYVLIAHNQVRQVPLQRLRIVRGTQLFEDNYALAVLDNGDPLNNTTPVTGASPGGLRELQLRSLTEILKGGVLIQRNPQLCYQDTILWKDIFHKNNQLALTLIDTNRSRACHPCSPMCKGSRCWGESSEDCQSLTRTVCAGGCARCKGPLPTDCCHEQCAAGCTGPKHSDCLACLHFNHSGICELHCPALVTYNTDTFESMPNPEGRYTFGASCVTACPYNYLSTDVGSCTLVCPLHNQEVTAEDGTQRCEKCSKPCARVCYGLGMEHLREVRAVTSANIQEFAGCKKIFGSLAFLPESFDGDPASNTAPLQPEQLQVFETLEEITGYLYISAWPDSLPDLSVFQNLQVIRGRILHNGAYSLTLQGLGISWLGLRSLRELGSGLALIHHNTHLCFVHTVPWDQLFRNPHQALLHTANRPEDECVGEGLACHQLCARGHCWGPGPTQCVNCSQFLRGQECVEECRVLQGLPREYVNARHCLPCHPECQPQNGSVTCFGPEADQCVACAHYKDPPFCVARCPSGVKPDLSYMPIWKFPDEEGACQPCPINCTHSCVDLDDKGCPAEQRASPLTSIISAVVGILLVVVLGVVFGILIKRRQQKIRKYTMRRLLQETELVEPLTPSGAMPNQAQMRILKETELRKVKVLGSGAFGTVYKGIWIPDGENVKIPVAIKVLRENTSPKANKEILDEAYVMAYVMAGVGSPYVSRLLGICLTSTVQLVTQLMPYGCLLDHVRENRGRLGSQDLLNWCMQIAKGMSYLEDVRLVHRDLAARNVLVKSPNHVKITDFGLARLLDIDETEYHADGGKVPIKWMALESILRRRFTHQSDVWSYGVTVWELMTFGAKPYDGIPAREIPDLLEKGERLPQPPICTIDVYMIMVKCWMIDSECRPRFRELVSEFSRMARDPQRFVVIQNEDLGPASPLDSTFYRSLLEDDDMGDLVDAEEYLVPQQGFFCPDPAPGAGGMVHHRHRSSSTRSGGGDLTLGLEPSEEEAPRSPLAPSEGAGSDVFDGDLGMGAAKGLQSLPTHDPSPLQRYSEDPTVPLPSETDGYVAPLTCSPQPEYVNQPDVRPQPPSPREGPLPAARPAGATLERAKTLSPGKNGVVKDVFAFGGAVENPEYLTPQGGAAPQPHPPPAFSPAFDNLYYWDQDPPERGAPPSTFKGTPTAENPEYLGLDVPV
ErbB2 with Exon 20 YVMA insertion (HER2-YVMA), sequence (P04626 other isoform, or with tags, fused parts or gaps ins YVMA behind 775): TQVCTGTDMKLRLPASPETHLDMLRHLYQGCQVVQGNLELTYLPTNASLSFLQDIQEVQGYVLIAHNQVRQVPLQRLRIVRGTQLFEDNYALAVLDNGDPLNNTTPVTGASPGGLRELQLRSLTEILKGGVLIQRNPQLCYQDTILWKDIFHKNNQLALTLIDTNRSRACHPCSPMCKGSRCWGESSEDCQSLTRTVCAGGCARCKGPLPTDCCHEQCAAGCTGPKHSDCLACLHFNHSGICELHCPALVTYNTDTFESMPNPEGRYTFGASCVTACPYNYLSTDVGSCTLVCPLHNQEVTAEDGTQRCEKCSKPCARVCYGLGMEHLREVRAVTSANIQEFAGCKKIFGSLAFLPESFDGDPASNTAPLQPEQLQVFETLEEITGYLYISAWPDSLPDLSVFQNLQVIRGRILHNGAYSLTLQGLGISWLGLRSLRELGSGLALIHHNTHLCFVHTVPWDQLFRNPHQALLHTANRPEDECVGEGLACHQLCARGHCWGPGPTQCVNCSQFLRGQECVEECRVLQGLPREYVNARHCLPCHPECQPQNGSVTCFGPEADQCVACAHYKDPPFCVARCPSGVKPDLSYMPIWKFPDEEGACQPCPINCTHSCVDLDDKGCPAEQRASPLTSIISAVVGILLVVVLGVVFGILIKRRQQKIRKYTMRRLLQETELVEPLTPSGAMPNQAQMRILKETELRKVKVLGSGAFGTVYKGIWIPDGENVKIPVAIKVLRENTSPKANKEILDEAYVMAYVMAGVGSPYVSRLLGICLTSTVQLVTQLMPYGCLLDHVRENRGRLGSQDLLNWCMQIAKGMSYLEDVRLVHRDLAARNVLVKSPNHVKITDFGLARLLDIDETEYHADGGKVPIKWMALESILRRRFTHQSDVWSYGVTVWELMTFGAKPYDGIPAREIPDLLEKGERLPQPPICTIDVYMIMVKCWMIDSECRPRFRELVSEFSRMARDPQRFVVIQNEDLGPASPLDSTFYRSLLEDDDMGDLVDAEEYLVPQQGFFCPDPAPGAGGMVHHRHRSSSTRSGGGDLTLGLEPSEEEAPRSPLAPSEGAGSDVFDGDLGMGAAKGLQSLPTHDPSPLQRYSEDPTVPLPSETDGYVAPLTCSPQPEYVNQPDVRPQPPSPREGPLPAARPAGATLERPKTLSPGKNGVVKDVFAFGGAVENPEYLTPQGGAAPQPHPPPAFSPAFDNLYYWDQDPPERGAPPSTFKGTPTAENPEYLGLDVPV
ErbB2 WT, sequence (P04626 23-1255): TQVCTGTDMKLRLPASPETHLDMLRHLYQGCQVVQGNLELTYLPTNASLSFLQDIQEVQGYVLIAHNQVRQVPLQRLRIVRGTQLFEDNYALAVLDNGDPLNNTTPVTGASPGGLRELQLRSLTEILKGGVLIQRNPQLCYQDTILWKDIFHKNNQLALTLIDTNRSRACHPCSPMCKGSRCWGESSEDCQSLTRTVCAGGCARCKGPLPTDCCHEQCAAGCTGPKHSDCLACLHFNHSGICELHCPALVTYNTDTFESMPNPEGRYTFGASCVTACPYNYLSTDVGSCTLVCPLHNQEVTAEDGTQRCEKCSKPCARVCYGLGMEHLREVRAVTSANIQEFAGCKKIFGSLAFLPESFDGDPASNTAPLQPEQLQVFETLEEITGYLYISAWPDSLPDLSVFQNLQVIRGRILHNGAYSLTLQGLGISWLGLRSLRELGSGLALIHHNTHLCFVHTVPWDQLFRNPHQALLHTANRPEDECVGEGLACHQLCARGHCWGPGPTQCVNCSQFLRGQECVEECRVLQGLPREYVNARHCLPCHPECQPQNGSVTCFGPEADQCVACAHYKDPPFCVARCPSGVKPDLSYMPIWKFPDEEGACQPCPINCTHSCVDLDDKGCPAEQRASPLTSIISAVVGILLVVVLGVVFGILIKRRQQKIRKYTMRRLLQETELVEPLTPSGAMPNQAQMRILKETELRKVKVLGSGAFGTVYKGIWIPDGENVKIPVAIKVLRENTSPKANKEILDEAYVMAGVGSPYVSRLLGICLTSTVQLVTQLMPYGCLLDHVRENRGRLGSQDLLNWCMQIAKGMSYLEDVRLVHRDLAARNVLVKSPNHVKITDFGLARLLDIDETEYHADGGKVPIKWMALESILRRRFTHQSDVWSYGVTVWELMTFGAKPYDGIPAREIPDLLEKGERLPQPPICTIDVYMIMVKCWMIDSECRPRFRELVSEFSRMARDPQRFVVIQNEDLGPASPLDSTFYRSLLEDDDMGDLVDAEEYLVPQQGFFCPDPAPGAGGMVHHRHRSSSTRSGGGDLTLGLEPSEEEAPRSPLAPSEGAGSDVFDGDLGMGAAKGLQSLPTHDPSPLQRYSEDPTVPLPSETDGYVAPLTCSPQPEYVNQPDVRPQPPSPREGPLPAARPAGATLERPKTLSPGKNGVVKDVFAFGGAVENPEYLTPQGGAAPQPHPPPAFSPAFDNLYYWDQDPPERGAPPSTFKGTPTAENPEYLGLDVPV
EGFR wild type (EGFR WT), sequence (P00533 25-1210): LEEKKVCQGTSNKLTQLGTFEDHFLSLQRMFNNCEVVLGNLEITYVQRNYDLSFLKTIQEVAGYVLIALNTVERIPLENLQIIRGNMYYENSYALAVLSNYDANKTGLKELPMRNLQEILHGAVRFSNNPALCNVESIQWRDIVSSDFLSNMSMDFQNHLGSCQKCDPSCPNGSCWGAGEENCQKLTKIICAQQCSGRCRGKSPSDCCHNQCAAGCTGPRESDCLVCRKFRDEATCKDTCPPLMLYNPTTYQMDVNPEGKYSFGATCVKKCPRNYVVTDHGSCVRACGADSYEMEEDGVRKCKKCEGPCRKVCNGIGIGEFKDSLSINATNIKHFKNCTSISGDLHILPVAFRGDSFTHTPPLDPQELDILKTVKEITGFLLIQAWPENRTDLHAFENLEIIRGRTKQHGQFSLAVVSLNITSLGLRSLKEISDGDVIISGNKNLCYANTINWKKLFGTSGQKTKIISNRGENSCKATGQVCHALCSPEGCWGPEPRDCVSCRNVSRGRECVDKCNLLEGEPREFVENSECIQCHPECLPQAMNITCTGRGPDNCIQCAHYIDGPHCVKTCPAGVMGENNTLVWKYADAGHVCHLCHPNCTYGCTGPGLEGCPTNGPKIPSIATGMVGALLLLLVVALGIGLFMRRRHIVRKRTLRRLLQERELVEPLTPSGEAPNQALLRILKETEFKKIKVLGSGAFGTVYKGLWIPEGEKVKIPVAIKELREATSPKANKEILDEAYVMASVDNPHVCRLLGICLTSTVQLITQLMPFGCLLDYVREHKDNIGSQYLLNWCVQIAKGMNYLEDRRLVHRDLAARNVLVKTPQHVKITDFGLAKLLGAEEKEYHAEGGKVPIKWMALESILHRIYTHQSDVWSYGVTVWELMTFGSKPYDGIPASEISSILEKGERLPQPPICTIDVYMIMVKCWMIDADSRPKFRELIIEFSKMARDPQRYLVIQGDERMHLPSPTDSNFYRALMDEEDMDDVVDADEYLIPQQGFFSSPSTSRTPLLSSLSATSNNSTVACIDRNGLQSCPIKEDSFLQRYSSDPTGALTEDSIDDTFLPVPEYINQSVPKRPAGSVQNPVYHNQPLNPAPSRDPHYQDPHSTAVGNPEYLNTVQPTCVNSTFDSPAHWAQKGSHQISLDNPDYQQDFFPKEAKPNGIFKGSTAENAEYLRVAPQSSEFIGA

Row | Structure (SMILES) | IC50 (EGFR wild type (EGFR WT)) | IC50 [1] | IC50 (EGFR) | IC50 (ErbB2 WT) | IC50 [2]
1 | Cc1cc(Nc2ncnc3cnc(N4CCCO4)nc23)ccc1Oc1ccn2ncnc2c1 [Example 428] | ≥ 5000 nM | 55.5 nM | ≥ 10000 nM | 202 nM | 317 nM
2 | N#CC[C@@H]1CCN(c2ncc3ncnc(Nc4ccc(Oc5ccn6ncnc6c5)c(Cl)c4)c3n2)C1 [Example 416] | ≥ 5000 nM | 11.3 nM | 2240 nM | 21.5 nM | 27.1 nM
3 | Cc1cc(Nc2ncnc3cnc(O[C@H]4CCN(C)C[C@@H]4F)nc23)ccc1Oc1ccc2c(c1)ncn2C [Example 288] | ≥ 5000 nM | 79.8 nM | ≥ 10000 nM | 262 nM | 94 nM
4 | Cc1cc(Nc2ncnc3cnc(N4CCOCC4)nc23)ccc1Oc1ccn2ncnc2c1 [Example 412] | ≥ 5000 nM | 25.9 nM | ≥ 10000 nM | 70.5 nM | 69.7 nM
5 | Cc1cc(Nc2ncnc3cnc(N4CCN[C@H](C(F)(F)F)C4)nc23)ccc1Oc1ccn2ncnc2c1 [Example 355] | ≥ 5000 nM | 19.3 nM | 5040 nM | 24.5 nM | 182 nM
6 | Clc1cc(Nc2ncnc3cnc(N4CC[C@@]45CCOC5)nc23)ccc1Oc1ccn2ncnc2c1 [Example 434] | ≥ 5000 nM | 8.4 nM | 760 nM | 10.2 nM | 161 nM
7 | Cc1cc(Nc2ncnc3cnc(N(C)[C@@H]4CN(C)C[C@@H]4F)nc23)ccc1Oc1ccc2c(c1)ncn2C [Example 305] | ≥ 5000 nM | 14.1 nM | 1860 nM | 20.3 nM | 10.8 nM
8 | Cc1cc(Nc2ncnc3cnc(N4CCC[C@@](C)(O)C4)nc23)ccc1Oc1ccn2ncnc2c1 [Example 414] | ≥ 5000 nM | 25.2 nM | 1410 nM | 23.7 nM | 140 nM
9 | Cc1cc(Nc2ncnc3cnc(N(C)CC(O)C(F)(F)F)nc23)ccc1Oc1ccc2c(c1)ncn2C (centres unmarked) [Example 188, 1,1,1-trifluoro-3-(methyl(8-((3-methyl-4-((1-methyl-1H-benzo[d]imidazol-5-yl)oxy)phenyl)amino)pyrimido[5,4-d]pyrimidin-2-yl)amino)propan-2-ol] | ≥ 5000 nM | 27.5 nM | ≥ 10000 nM | 27.1 nM | 20.5 nM
10 | Cc1cc(Nc2ncnc3cnc(N4CCN[C@@H](C)C4)nc23)ccc1Oc1ccc2c(c1)ncn2C [Example 278] | ≥ 5000 nM | 22 nM | 9550 nM | 42.9 nM | 13.5 nM
11 | Cc1cc(Nc2ncnc3cnc(N(C)[C@H]4CCCOC4)nc23)ccc1Oc1ccn2ncnc2c1 [Example 349] | ≥ 5000 nM | 18.9 nM | 1290 nM | 24 nM | 116 nM
12 | Cn1cnc2cc(Oc3ccc(Nc4ncnc5cnc(N6CC[C@@H](C#N)C6)nc45)cc3Cl)ccc21 [Example 444] | ≥ 5000 nM | 24.3 nM | ≥ 10000 nM | 52.6 nM | 41.7 nM
13 | Cc1cc(Nc2ncnc3cnc(O[C@H]4CN(C)C[C@H]4F)nc23)ccc1Oc1ccc2c(c1)ncn2C [Example 287] | ≥ 5000 nM | 42.9 nM | ≥ 10000 nM | 118 nM | 60.9 nM
14 | Cc1cc(Nc2ncnc3cnc(N4CCN(CC(F)F)CC4)nc23)ccc1Oc1ccc2c(c1)ncn2C [Example 477] | ≥ 5000 nM | 59.6 nM | ≥ 10000 nM | 47.1 nM | 53.3 nM
15 | Cn1cnc2cc(Oc3ccc(Nc4ncnc5cnc(N6CCOC(C)(C)C6)nc45)cc3Cl)ccc21 [Example 448] | ≥ 5000 nM | 75.9 nM | ≥ 10000 nM | 143 nM | 40.8 nM
16 | Cc1c(Oc2ccn3ncnc3c2)ccc(Nc2ncnc3cnc(N4C[C@@H](O)C(F)(F)C4)nc23)c1F [Example 316] | ≥ 5000 nM | 52.2 nM | 5040 nM | 111 nM | 1320 nM
17 | Cn1cnc2cc(Oc3ccc(Nc4ncnc5cnc(N6CCOC7(CC7)C6)nc45)cc3Cl)ccc21 [Example 449] | ≥ 5000 nM | 157 nM | ≥ 10000 nM | 152 nM | 6.2 nM

Row | Structure (SMILES) | IC50 (EGFR wild type (EGFR WT)) | IC50 [1] | IC50 (EGFR) | IC50 (ErbB2 WT) | IC50 [2]
18 | Cn1cnc2cc(Oc3ccc(Nc4ncnc5cnc(N6CCC(C)(O)CC6)nc45)cc3Cl)ccc21 [Example 480] | ≥ 5000 nM | 18.1 nM | 5040 nM | 23.3 nM | 4.4 nM
19 | Cc1cc(Nc2ncnc3cnc(N4CCC45COC5)nc23)ccc1Oc1ccc2c(c1)ncn2C [Example 27, N-(3-methyl-4-((1-methyl-1H-benzo[d]imidazol-5-yl)oxy)phenyl)-6-(6-oxa-1-azaspiro[3.3]heptan-1-yl)pyrimido[5,4-d]pyrimidin-4-amine] | ≥ 5000 nM | 20 nM | ≥ 10000 nM | 50.8 nM | 9.3 nM
20 | Cc1cc(Nc2ncnc3cnc(N(C)[C@H]4C[C@@H](C(C)(C)O)C4)nc23)ccc1Oc1ccc2c(c1)ncn2C [Example 467] | ≥ 5000 nM | 26.4 nM | 4790 nM | 34.5 nM | 19.4 nM
21 | O[C@@H]1[C@@H]2CC[C@H]1CN(c1ncc3ncnc(Nc4ccc(Oc5ccn6ncnc6c5)c(Cl)c4)c3n1)C2 [Example 341] | ≥ 5000 nM | 12.7 nM | 1740 nM | 20.7 nM | 43.1 nM
22 | CC1(C)CN(c2ncc3ncnc(Nc4ccc(Oc5ccn6ncnc6c5)c(Cl)c4)c3n2)CC[C@@H]1O [Example 337] | ≥ 5000 nM | 17 nM | 2490 nM | 13.3 nM | 70.3 nM
23 | CN(CC(C)(C)O)c1ncc2ncnc(Nc3ccc(Oc4ccn5ncnc5c4)c(Cl)c3)c2n1 [Example 405] | ≥ 5000 nM | 15.7 nM | 4690 nM | 30.3 nM | 106 nM
24 | Cc1cc(Nc2ncnc3cnc(N4CCC(C)(O)CC4)nc23)c(F)cc1Oc1ccc2c(c1)ncn2C [Example 215, 1-(8-((2-fluoro-5-methyl-4-((1-methyl-1H-benzo[d]imidazol-5-yl)oxy)phenyl)amino)pyrimido[5,4-d]pyrimidin-2-yl)-4-methylpiperidin-4-ol] | ≥ 5000 nM | 28.8 nM | ≥ 10000 nM | 120 nM | 37.8 nM
25 | CNc1ncc2ncnc(Nc3ccc(Oc4ccc5csnc5c4)c(C)c3)c2n1 [Example 241] | ≥ 5000 nM | 28.3 nM | 1640 nM | 123 nM | 244 nM
26 | Cc1cc(Nc2ncnc3cnc(OCC4(F)CN(C)C4)nc23)ccc1Oc1ccc2c(c1)ncn2C [Example 292] | ≥ 5000 nM | 105 nM | ≥ 10000 nM | 558 nM | 132 nM
27 | CN(CC1(O)CCC1)c1ncc2ncnc(Nc3ccc(Oc4ccn5ncnc5c4)c(Cl)c3)c2n1 [Example 329] | ≥ 5000 nM | 19.8 nM | 5060 nM | 37.7 nM | 85.2 nM
28 | Cc1cc(Nc2ncnc3cnc(N(C)CC4(O)CC4)nc23)ccc1Oc1ccn2ncnc2c1 [Example 385] | ≥ 5000 nM | 18.5 nM | 5150 nM | 40 nM | 183 nM
29 | Cc1cc(Nc2ncnc3cnc(N4CCN[C@H](C)C4)nc23)ccc1Oc1ccn2ncnc2c1 [Example 352] | ≥ 5000 nM | 37.5 nM | ≥ 10000 nM | 131 nM | 147 nM
30 | Cc1cc(Nc2ncnc3cnc(N4CC5(C4)CC5(F)F)nc23)ccc1Oc1ccc2c(c1)ncn2C [Example 300] | ≥ 5000 nM | 75.5 nM | ≥ 10000 nM | 284 nM | 30.7 nM
31 | Cc1cc(Nc2ncnc3cnc(N=S4(=O)CCOCC4)nc23)ccc1Oc1ccc2c(c1)ncn2C [Example 138, 4-((8-((3-methyl-4-((1-methyl-1H-benzo[d]imidazol-5-yl)oxy)phenyl)amino)pyrimido[5,4-d]pyrimidin-2-yl)imino)-1,4λ^6-oxathiane 4-oxide] | ≥ 5000 nM | 32.2 nM | 4910 nM | 33.6 nM | 58.2 nM
32 | Cc1cc(Nc2ncnc3cnc(N4CCC45COC5)nc23)ccc1Oc1ccn2ncnc2c1 [Example 369] | ≥ 5000 nM | 7.3 nM | 3870 nM | 37.1 nM | 151 nM
33 | Cc1c(Oc2ccn3ncnc3c2)ccc(Nc2ncnc3cnc(N4CC[C@H](O)C4)nc23)c1F [Example 311] | ≥ 5000 nM | 75.3 nM | ≥ 10000 nM | 76.3 nM | 3330 nM
34 | Cc1cnc(-c2ncc3ncnc(Nc4ccc(Oc5ccc6c(c5)ncn6C)c(C)c4)c3n2)o1 [Example 231] | ≥ 5000 nM | 115 nM | ≥ 10000 nM | 274 nM | 39.2 nM
